According to PMC4717870, “Evaluation of fluoropyruvate as nucleophile in reactions catalysed by N-acetyl neuraminic acid lyase variants: scope, limitations and stereoselectivity” (Organic & Biomolecular Chemistry, 2015):

Target: T1, S. aureus NAL (Staphylococcus aureus, UniProt Q2G160)
T1 construct: gene nanA; crystal structure
Test: X-ray crystal structure of the complex
Assay type: binding
Conditions: covalent; Z-configured enamine observed in the active site

T1 sequence (Q2G160 whole entry): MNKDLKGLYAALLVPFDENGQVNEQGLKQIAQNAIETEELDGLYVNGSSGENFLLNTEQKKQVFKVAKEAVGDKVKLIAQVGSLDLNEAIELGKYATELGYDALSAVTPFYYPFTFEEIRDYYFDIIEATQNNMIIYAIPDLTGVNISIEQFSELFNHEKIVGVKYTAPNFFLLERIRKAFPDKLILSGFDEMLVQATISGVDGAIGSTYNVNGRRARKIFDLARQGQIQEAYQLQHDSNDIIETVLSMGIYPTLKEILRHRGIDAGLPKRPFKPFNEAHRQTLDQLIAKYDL

O=C(O)C(=O)CF [fluoropyruvate]
X-ray crystal structure of the complex: the crystal structure of S. aureus NAL was determined in complex with fluoropyruvate
